Among the data in ChEMBL document CHEMBL5725474, “Carbazole compounds useful as bromodomain inhibitors” (2018) are IC50 values, retold here.

pIC50: −log10 of the molar value.

For the experiment, the target named is Bromodomain-containing protein 4 (Homo sapiens, UniProt O60885). Put plainly: Time Resolved Fluorescence Resonance Energy Transfer (TR-FRET) Assay: The binding of compounds to bromodomain BRD4 (44-168), BRD4 (333-460), and BRD4 (1-477 or 44-460) was assessed using a time resolved fluorescent resonance energy transfer binding assay (1), that measures the binding of a fluorescently labeled probe molecule to the bromodomain protein. The bromodomain protein, fluorescent probe molecule (either a biotinylated histone peptide or a fluorescently labeled small molecule), and dose-responsed test compound are incubated together to reach thermodynamic equilibrium. In the absence of a test compound, the bromodomain and small molecule are bound, resulting in a high fluorescent signal. In the presence of a sufficient concentration of inhibitor, this intercation is disrupted resulting in a loss of fluorescent resonance energy transfer. (Time-resolved FRET reads energy transfer from a long-lived donor to a nearby acceptor.)
Usually pIC50 stands for the IC50 on a negative log10 scale, so that one unit is a factor of ten. Turning to `Cc1noc(C)c1-c1cc(C(N)=O)c2c(c1)c1ccc(N3CCCC3=O)cc1n2CC1CC1`, the pIC50 was more than 7.30.
On to `COC(=O)Nc1ccc2c3cc(-c4c(C)noc4C)cc(C(N)=O)c3n(CC3CC3)c2c1`, for which the pIC50 is more than 6.30.
On to `Cc1noc(C)c1-c1cc(C(N)=O)c2c(c1)c1ccc(S(C)(=O)=O)cc1n2S(=O)(=O)C1CC1`, for which the pIC50 is more than 6.30.
As to `Cc1noc(C)c1-c1cc(C(=O)NCC2CC2)c2c(c1)c1c(S(C)(=O)=O)cccc1n2CC1CC1`, the negative logarithm of the IC50 (pIC50) is more than 6.30.
To `Cc1noc(C)c1-c1cc(C(N)=O)c2c(c1F)c1ccc(C(=O)N3C[C@@H](C)O[C@@H](C)C3)cc1n2CC1CC1` belongs more than 7.30.
To `COC1CN(C(=O)c2ccc3c4cc(-c5c(C)noc5C)cc(C(N)=O)c4n(S(=O)(=O)C4CC4)c3c2)C1` belongs more than 7.30; to `Cc1noc(C)c1-c1cc(C(N)=O)c2c(c1)c1ccc(C(C)(C)O)cc1n2S(C)(=O)=O`, more than 7.30.
As for `Cc1noc(C)c1-c1cc(C(N)=O)c2c(c1)c1ccc(N3CCOCC3)cc1n2CC1CC1`, the pIC50 was more than 5.30.
